Data from patent publication EP0135770A2, “Imidazobenzodiazepine derivatives, process for their preparation and medicaments containing them” (F. HOFFMANN-LA ROCHE & CO. Aktiengesellschaft, priority 1983, dated 1985).

Columns and labels:
[1] = test system: CF-1-Mäuse; experiment: Intravenous antimetrazol test (Intravenöser Antimetrazoltest), protection against Metrazol convulsions; type: in vivo; settings: Mus musculus, 1 h, oral dosing, Metrazol 70 mg/kg i.v. one hour later, 50% of animals without convulsions
Procedure: Männliche CF-1-Mäuse, welche 45-54 Tage alt sind und während ungefähr 24 Stunden vom Futter ferngehalten wurden, werden in diesem Test eingesetzt. Die Testverbindung, dispergiert in 5% Akazienöl, wird 3 Mäusen oral verabreicht und zwar bei einer Dosis, die 1/10 der im TSP-Test ermittelten Lethaldosis entspricht. Eine Stunde später wird Metrazol intravenös verabreicht (70 mg/kg: konvulsive Dosis 100 mg/kg) und die Versuchstiere während 30 Sekunden beobachtet, ob ein Schutz gegenüber den Krampfanfällen eintritt. Falls die Testverbindung oral aktiv ist, werden pro Dosis 3 Versuchstiere eingesetzt. Die Dosis, bei der 50% der Versuchstiere keinerlei Krampfanfälle erleiden, wird als ED50-Wert bezeichnet.
Gemacht Messungen: Die Anzahl der Versuchstiere, welche gegen Krampfanfälle geschützt sind.
Berechnun^qen: Falls die Prüfsubstanz aktiv ist und 3 Mäuse pro Dosis eingesetzt werden, wird der approximative ED -Wert nach der Methode von Miller und Tainter (Proc. Soc. Exp. Biol. med. 57:261 (1944)) berechnet. Falls 6 oder mehr Mäuse pro Dosis eingesetzt werden, wird der ED50--Wert sowie der 95%ige Vertrauensbereich mit Hilfe eines Computerprogramms berechnet, welches auf der Methode von D.J. Finney (Probit Analysis, Cambridge University Press. Cambridge, England, 1971) beruht.
Dieser Test eignet sich zur Evaluation von Antikonvulsiva und ist für eine Aussage bezüglich der anxiolytischen Wirkung relevant.

[2] = test system: CF-1-Mäuse; experiment: Rotating rod test (Rotierstabtest), mice observed 30 min after dosing; type: in vivo
Text: Dieser Test ist eine Modifikation der von N.W. Dunham und T.S. Miya in J.A. Ph. A. Sci. Ed. 46, 208 (1957) beschriebenen Methode. CF-1-Mäuse, welche aufgrund ihrer Fähigkeit ausgewählt worden sind, sich während 2 Minuten auf einem Rotierstab von 30 mm Durchmesser und 16 Umdrehungen pro Minute halten zu können, werden verwendet. Gruppen von je 8 Mäusen werden 30 Minuten nach Verabreichung der Testverbindung auf den Rotierstab verbracht und während 2 Minuten beobachtet. Diejenigen Mäuse, die sich nicht während der vollen 2 Minuten auf dem Rotierstab halten können, werden als durch die Testverbindung beeinflusst qualifiziert. Die Anzahl derjenigen Mäuse, die sich auf dem Rotierstab nicht halten können, wird in Prozent der Gesamtanzahl Mäuse in jeder Gruppe bei den verschiedenen Dosen angegeben. Diese Prozentwerte werden gegen die Dosis auf logarithmischem Papier aufgezeichnet, und der ED5o-Wert wird nach der Methode von L.C. Miller und M.L. Tainter in Proc. Soc. Exp. Biol. Med. 57, 26 (1944) ermittelt.
Der Zweck des vorliegenden Tests ist die Ueberprüfung von chemischen Verbindungen im Hinblick auf ihre Wirkung auf den Muskeltonus und/oder die muskuläre Koordination. speziell diejenige von Muskelrelaxantien, Sedativa oder Stimulantien.

[3] = Mus musculus, po, 0.5 h, compounds of the invention, mice unable to stay 2 min on the rotating rod, 30 min after administration, read-out: ED50
[4] = Mus musculus, po, 0.5 h, standard compounds, mice unable to stay 2 min on the rotating rod, 30 min after administration, read-out: ED50

Compound | ED50 ([1]; compounds of the invention) [mg/kg] | ED50 [2, 3] [mg/kg] | also measured
Cc1nc(C(N)=O)c2n1-c1ccccc1C(c1ccccc1Cl)=NC2 [Beispiel 63, 6-(2-Chlorphenyl)-1-methyl-4H-imidazo[1,5-a][1,4]benzodiazepin-3-carboxamid] | 5.1 | > 200 | –
NC(=O)c1ncn2c1CN=C(c1ccccc1Cl)c1ccccc1-2 [Beispiel 27, 6-(2-Chlorphenyl)-4H-imidazo[1,5-a][1,4]benzodiazepin-3-carboxamid] | 7.4 | > 200 | –
CNC1=Nc2ccc(Cl)cc2C(c2ccccc2)=[N+]([O-])C1 [Chlordiazepoxyd, reference compound] | – | – | ED50 ([1]; standard compounds): 3.9 mg/kg; ED50 [2, 4]: 33.5 mg/kg
N-Acetyl-6-(2-chlorphenyl)-4H-imidazo-[1,5-a][1,4]benzodiazepin-3-carboxamid-acetylester | – | – | ED50 ([2]; compounds of the invention, mice unable to stay 2 min on the rotating rod, 30 min after administration): >200 mg/kg p.o.
CN(C)CCCN1c2ccccc2Sc2ccc(Cl)cc21 [Chlorpromazin, reference compound] | – | – | ED50 [2, 4]: 10 mg/kg
CCC1(c2ccccc2)C(=O)NC(=O)NC1=O [Natriumphenobarbital, reference compound] | – | – | ED50 ([1]; standard compounds): 19 mg/kg
COc1ccc2c(c1)N(C[C@H](C)CN(C)C)c1ccccc1S2 [Methotrimeprazin, reference compound] | – | – | ED50 [2, 4]: 3.8 mg/kg
CN1C(=O)CN=C(c2ccccc2)c2cc(Cl)ccc21 [Diazepam, reference compound] | – | – | ED50 ([1]; standard compounds): 1 mg/kg; ED50 ([2]; Mus musculus, po, 0.5 h): 7.4 mg/kg
CC(=O)NC(=O)c1ncn2c1CN=C(c1ccccc1Cl)c1ccccc1-2 [Beispiel 68, N-Acetyl-6-(2-chlorphenyl)-4H-imidazo[1,5-a][1,4]benzodiazepin-3-carboxamid] | 1.3 | – | –
NC(=O)c1ncn2c1C(O)N=C(c1ccccc1Cl)c1ccccc1-2 (centres unmarked) [Beispiel 72, 6-(2-Chlorphenyl)-4-hydroxy-4H-imidazo[1,5-a][1,4]benzodiazepin-3-carboxamid] | 0.86 | > 200 | –
NC(=O)c1ncn2c1CN=C(c1ccccc1Cl)c1ccc(Cl)cc1-2 [Beispiel 31, 9-Chlor-6-(2-chlorphenyl)-4H-imidazo[1,5-a][1,4]benzodiazepin-3-carboxamid] | 0.97 | > 200 | –
